Entries after “also recorded” stand apart in the source; their conditions may differ.

29 sequences from article PMC5344539, “Nematode neuropeptides as transgenic nematicides” (PLoS Pathogens, 2017) can be followed below.

Experiment [1] relates to M. incognita J2s. The experiment can be described thus: Serotonin-induced stylet thrusting assay. Conditions: for % Thrusting: Fig 1C, J2s incubated in 100 μM uNLP for 24 h, stylet thrusts in 5 mM serotonin, counted 1 min, normalised to control = 100%, mean, at least 30 J2s; for effect on serotonergic-induced stylet thrusting (in words): 100 μM uNLP, 24 h, 5 mM serotonin, relative to controls. It counts as in vivo, Meloidogyne incognita. The procedure:
(§1) Predicted uNLPs from both M. incognita and G. pallida were synthesised by EZBiolab and dissolved into pH adjusted ddH2O to make a 5 mM stock which was aliquoted and stored at -20°C. J2s of both M. incognita and G. pallida were incubated for 24 hours in 200 μl of each peptide in a 24 well plate (SPL Lifesciences, South Korea) at a defined concentration.
(§2) Stylet thrusting assays where performed by incubating 100 M. incognita or G. pallida J2s for 15 minute in 5 mM or 2 mM serotonin (Sigma Aldrich, USA), respectively. J2s were placed on a glass slide and stylet thrusts were counted for randomly selected J2s, for 1 minute each. Counts for a given cohort of J2s were taken in a maximum interval of 15 minutes. Longer counting intervals, making for longer serotonin incubations, yielded inconsistent results. At least 30 J2s were counted for each neuropeptide treatment.

Experiment [2] relates to G. pallida J2s. The experiment can be described thus: Chemosensory (chemotaxis) assay of uNLP pre-treated J2s towards tomato root exudate. It counts as in vivo, Globodera pallida. Particulars: for CI score: Fig 2A, J2s incubated in 100 μM uNLP for 24 h, tomato cv. Moneymaker root exudate vs water agar plugs, counted after 3 h, mean of 10 replicates of 100 J2s, control 0.4154; for effect on chemosensation (in words): 100 μM uNLP, 24 h, relative to controls. The procedure: as §1
(§3) A 60 mm Petri dish was divided into two segments, a positive and a negative side, with a 0.5 cm 'dead zone' either side of the centre point. The petri dish was filled with 15 ml of 0.25% w/v agar which was allowed to solidify. 3 ml of 0.25% w/v agar slurry in spring water (pH 7, agitated with a magnetic stirrer for several hours to give a smooth consistency) was added to the petri dish and spread evenly over the surface. Root diffusate (attractant) and water only (control) 0.25% agar plugs were embedded in the agar slurry, either side of the assay arena. Root diffusate was collected from 10 tomato plants, aged 3–6 weeks in 1 litre pots, by pouring 500 ml of ddH20 through the soil three times. Diffusate from each plant was combined, filter sterilised and stored at 4°C for a maximum of 1 month. Root diffusate agar plugs were made by melting 1.25% agar in ddH20, cooling to 50°C before mixing with 4 parts of root diffusate. The agar was then allowed to solidify at room temperature. 100 uNLP pre-treated M. incognita or G. pallida J2s were added by pipette to the centre of the plate. J2s which moved out of the 'dead zone' after 3 hours were counted and their location (+/-) scored. The distribution of J2s were used to create a chemotaxis index for each plate, which formed one replicate, a total of 10 replicates where completed for each uNLP treatment.

In experiment [3] the test system is M. incognita J2s. The experiment is described as above. In kind it is in vivo, Meloidogyne incognita. Conditions: for effect on chemosensation (in words): 100 μM uNLP, 24 h, relative to controls; for CI score: Fig 1A, J2s incubated in 100 μM uNLP for 24 h, tomato cv. Moneymaker root exudate vs water agar plugs, counted after 3 h, mean of 10 replicates of 100 J2s, control 0.4426. As to the method: as §1, §3

The test system of experiment [4] is M. incognita J2s. Briefly: Tomato invasion assay with uNLP pre-treated J2s. In kind it is in vivo, Meloidogyne incognita. Conditions: for effect on host invasion (in words): 100 μM uNLP, 24 h, tomato cv. Moneymaker, relative to controls; for % Invasion: Fig 1B, 500 J2s incubated in 100 μM uNLP for 24 h, single tomato seedling, 24 h at 23°C, normalised to negative control = 100%, mean. As to the method: as §1
Tomato seeds were sterilised with 2.5% NaOCl for 15 minutes, washed 5 times in ddH20 and germinated on 0.5% Murashige and Skoog plates at 23°C. […] Invasion assays were performed by mixing 500 pre-treated M. incognita or G. pallida J2s with agar slurry and a single tomato seedling (2 days post germination) in a 6 well plate. Assays were left at 23°C for 24 hours in the case of M. incognita and at 18°C for 24 hours in the case of G. pallida under a 16 hour light and 8 hour darkness cycle. Seedlings were stained using acid fuschin [69] and the number of nematodes within the roots counted. At least five seedlings were used for M. incognita infections assays, with at least 15 seedlings used for G. pallida infections assays (due to increased variation).

In experiment [5] the test system is G. pallida J2s. Briefly: Serotonin-induced stylet thrusting assay. In kind it is in vivo, Globodera pallida. Conditions: for effect on serotonergic-induced stylet thrusting (in words): 100 μM uNLP, 24 h, 2 mM serotonin, relative to controls; for % Thrusting: Fig 2C, J2s incubated in 100 μM uNLP for 24 h, stylet thrusts in 2 mM serotonin, counted 1 min, normalised to control = 100%, mean, at least 30 J2s. As to the method:
as §1, §2

For “SSLASGRIGFRPA [Mi-NLP-2, predicted unamidated NLP of M. incognita, synthesised]”, the “% Thrusting” value in experiment [1] is 164.40%.

Regarding “GGARAFAKLEE [Mi-NLP-9c, predicted unamidated NLP of M. incognita, synthesised]”, the “% Thrusting” value in experiment [1] came to 143.20%.

As to “ALDILDGDDFTGFS [Gp-NLP-14e, predicted unamidated NLP of G. pallida, synthesised]”, the CI score in experiment [2] was -0.0641.

On to “AFDSFGTPGFTGFD [Mi-NLP-15a, predicted unamidated NLP of M. incognita, synthesised]”, for which, in experiment [3], the “effect on chemosensation (in words)” value is on record as “inhibit chemosensation” and the CI score is -0.01067.

With “AFDSFAGNGFTGFD [Mi-NLP-15f, predicted unamidated NLP of M. incognita, synthesised]”, in experiment [1], the “effect on serotonergic-induced stylet thrusting (in words)” value is recorded as “reduces stylet thrusting rate” and the “% Thrusting” value came out at 75.18%. In experiment [3], the “effect on chemosensation (in words)” value is “inhibit chemosensation” and the CI score was -0.05. Also, the “effect on host invasion (in words)” value in experiment [4] is recorded as “does not impact on host invasion”.

With “SSQFGGENSFARFAFA [Mi-NLP-18e, predicted unamidated NLP of M. incognita, synthesised]”, the “% Invasion” value in experiment [4] is on record as 46.49%.

For “FNDDELSSLPFNFEYFPSLDTH [Mi-NLP-8b, predicted unamidated NLP of M. incognita, synthesised]”, the “% Invasion” value in experiment [4] is reported as 61.38%.

As for “AFDRLDVSPFDFDAMT [Mi-NLP-8a, predicted unamidated NLP of M. incognita, synthesised]”, the “% Thrusting” value in experiment [1] is given as 126.10%. The CI score in experiment [3] was 0.018.

As to “SAFDSFVGRGFTGMD [Mi-NLP-15e, predicted unamidated NLP of M. incognita, synthesised]”, in experiment [3], the “effect on chemosensation (in words)” value is “inhibit chemosensation” and the CI score is recorded as -0.01767. For the same sequence, the “% Invasion” value in experiment [4] is 38.71%.

For “GGARPFYGFFGGGEGTW [Mi-NLP-9e, predicted unamidated NLP of M. incognita, synthesised]”, in experiment [4], the “% Invasion” value was 48.68%.

For the sequence “ALDMLEGDDFIGMQ [Mi-NLP-14a, predicted unamidated NLP of M. incognita, synthesised]”, in experiment [1], the “effect on serotonergic-induced stylet thrusting (in words)” value is “inhibition; also recorded: reduces stylet thrusting rate” and the “% Thrusting” value stood at 61.60%. In experiment [4], the “effect on host invasion (in words)” value is given as “does inhibit host invasion” and the “% Invasion” value worked out at 44.61%.

Consider “AAENFDENNDIN [Mi-NLP-18d, predicted unamidated NLP of M. incognita, synthesised]”, for which, in experiment [1], the “effect on serotonergic-induced stylet thrusting (in words)” value was “agonise serotonergic stylet thrusting” and the “% Thrusting” value was 147.70%. Besides, in experiment [3], the “effect on chemosensation (in words)” value is recorded as “no negative impact on J2 chemosensory ability”. In experiment [4], the “effect on host invasion (in words)” value was “reduce host invasion rates” and the “% Invasion” value came to 34.21%.

On to “SFDSFVGKGFTGMD [Mi-NLP-15c, predicted unamidated NLP of M. incognita, synthesised]”, for which, in experiment [3], the “effect on chemosensation (in words)” value is on record as “inhibit chemosensation” and the CI score was -0.359.

Regarding “SFGDYPFGSRTFAFA [Mi-NLP-18c, predicted unamidated NLP of M. incognita, synthesised]”, the “% Thrusting” value in experiment [1] is 175.50%.

As to “GGARAFNGAEETLLNVANLA [Gp-NLP-21i, predicted unamidated NLP of G. pallida, synthesised]”, in experiment [2], the “effect on chemosensation (in words)” value is given as “inhibit chemosensation” and the CI score was -0.1733. Further, in experiment [5], the “effect on serotonergic-induced stylet thrusting (in words)” value is given as “modulating stylet thrusting rates” and the “% Thrusting” value stood at 117.70%.

In the case of “AGGRLFRMVDLPDGDDFVPEG [Gp-NLP-21e, predicted unamidated NLP of G. pallida, synthesised]”, the CI score in experiment [2] is given as -0.3804.

For the sequence “SFDSFTGSGFTGLD [Gp-NLP-15c, predicted unamidated NLP of G. pallida, synthesised]”, in experiment [2], the “effect on chemosensation (in words)” value is “inhibit chemosensation” and the CI score is given as -0.227. Moreover, in experiment [5], the “effect on serotonergic-induced stylet thrusting (in words)” value was “modulating stylet thrusting rates” and the “% Thrusting” value was 56.07%.

For “ALDILESDDFGGF [Gp-NLP-14a, predicted unamidated NLP of G. pallida, synthesised]”, the CI score in experiment [2] is recorded as -0.3765.

For the sequence “AFDLFTGPGFTGMD [Gp-NLP-15h, predicted unamidated NLP of G. pallida, synthesised]”, the CI score in experiment [2] is -0.06784.

As for “AGARAFQRPDFDDASYEL [Mi-NLP-9a, predicted unamidated NLP of M. incognita, synthesised]”, the “% Invasion” value in experiment [4] is 45.59%.

As to “AFDSFTGPGFTGMD [Gp-NLP-15g, predicted unamidated NLP of G. pallida, synthesised]”, in experiment [2], the CI score is reported as -0.2208.

Regarding “GGARPFYGGGYMDGTW [Gp-NLP-21f, predicted unamidated NLP of G. pallida, synthesised]”, the CI score in experiment [2] was determined as 0.1456.

Turning to “GMRNFAFA [Mi-NLP-18b, predicted unamidated NLP of M. incognita, synthesised]”, in experiment [1], the “effect on serotonergic-induced stylet thrusting (in words)” value is “agonise serotonergic stylet thrusting” and the “% Thrusting” value came to 146.60%. Besides, the “effect on chemosensation (in words)” value in experiment [3] is given as “no negative impact on J2 chemosensory ability”. Besides, in experiment [4], the “effect on host invasion (in words)” value is given as “reduce host invasion rates” and the “% Invasion” value came out at 47.81%.

Turning to “ALDLMEGDGFGGGFD [Mi-NLP-14b, predicted unamidated NLP of M. incognita, synthesised]”, the CI score in experiment [3] is reported as -0.1155.

For “GGARTFLVGE [Mi-NLP-9b, predicted unamidated NLP of M. incognita, synthesised]”, in experiment [3], the “effect on chemosensation (in words)” value is “inhibit chemosensation” and the CI score was -0.07417.

In the case of “AFDRLDNSFMLL [Mi-NLP-8d, predicted unamidated NLP of M. incognita, synthesised]”, the “% Invasion” value in experiment [4] was found to be 29.31%.

Turning to “ALDMMEGDDFIGL [Mi-NLP-14c, predicted unamidated NLP of M. incognita, synthesised]”, in experiment [1], the “effect on serotonergic-induced stylet thrusting (in words)” value is reported as “excitation; also recorded: agonise serotonergic stylet thrusting” and the “% Thrusting” value is 134.70%. In experiment [3], the “effect on chemosensation (in words)” value is given as “no negative impact on J2 chemosensory ability”. In experiment [4], the “effect on host invasion (in words)” value is “reduce host invasion rates” and the “% Invasion” value turned out to be 20.96%.

Consider “FAPRQFAFA [Mi-NLP-18a, predicted unamidated NLP of M. incognita, synthesised]”, for which, in experiment [3], the “effect on chemosensation (in words)” value is “inhibited” and the CI score is given as -0.1353. In addition, in experiment [4], the “effect on host invasion (in words)” value is on record as “inhibited” and the “% Invasion” value is recorded as 25.88%.

“SFDSLTGPGFTGLDT [Gp-NLP-15a, predicted unamidated NLP of G. pallida, synthesised]”: in experiment [2], the CI score is recorded as -0.1451.
